The results in this text go back to patent US11554048B2, “System and method for treating meibomian gland dysfunction” (The Schepens Eye Research Institute, Inc., priority 2018, dated 2023).

The subject of this assay is iHMGEC. The experiment in a line: Terminal differentiation of iHMGECs under low oxygen combined with phospholipidosis-inducing drug. Format: cell-based, human. As to conditions: low oxygen levels combined with drug exposure, 10 μg/ml. An excerpt:
This hypoxic effect is associated with a significant rise in the number and size of lysosomes, as well as increased DNase II activity and decreased Lamp-1 expression. These latter changes are consistent with heightened terminal differentiation and holocrine secretion.

As for `CC[C@H]1OC(=O)[C@H](C)[C@@H](O[C@H]2C[C@@](C)(OC)[C@@H](O)[C@H](C)O2)[C@H](C)[C@@H](O[C@@H]2O[C@H](C)C[C@H](N(C)C)[C@H]2O)[C@](C)(O)C[C@@H](C)CN(C)[C@H](C)[C@@H](O)[C@]1(C)O` [azithromycin], the “hypoxic influence on terminal differentiation” value is “further enhanced”.
